Data taken from ChEMBL document CHEMBL4507272 (2021).

How the values were obtained:
[1] = target: Calcium/calmodulin-dependent protein kinase type 1B (Homo sapiens) (UniProt Q6P2M8); conditions: Compound concentration 1000.0 nM
[2] = target: Cyclin-dependent kinase-like 2 (Homo sapiens) (UniProt Q92772); conditions: Compound concentration 1000.0 nM
[3] = target: Serine/threonine-protein kinase haspin (Homo sapiens) (UniProt Q8TF76); conditions: Compound concentration 1000.0 nM
[4] = target: Interleukin-1 receptor-associated kinase 1 (Homo sapiens) (UniProt P51617); conditions: Compound concentration 1000.0 nM
[5] = target: Interleukin-1 receptor-associated kinase 3 (Homo sapiens) (UniProt Q9Y616); conditions: Compound concentration 1000.0 nM
[6] = target: Mitogen-activated protein kinase 9 (Homo sapiens) (UniProt P45984); conditions: Compound concentration 1000.0 nM
[7] = target: Mitogen-activated protein kinase 10 (Homo sapiens) (UniProt P53779); conditions: Compound concentration 1000.0 nM
Sequence of Mitogen-activated protein kinase 10 (Homo sapiens) (P53779 whole entry): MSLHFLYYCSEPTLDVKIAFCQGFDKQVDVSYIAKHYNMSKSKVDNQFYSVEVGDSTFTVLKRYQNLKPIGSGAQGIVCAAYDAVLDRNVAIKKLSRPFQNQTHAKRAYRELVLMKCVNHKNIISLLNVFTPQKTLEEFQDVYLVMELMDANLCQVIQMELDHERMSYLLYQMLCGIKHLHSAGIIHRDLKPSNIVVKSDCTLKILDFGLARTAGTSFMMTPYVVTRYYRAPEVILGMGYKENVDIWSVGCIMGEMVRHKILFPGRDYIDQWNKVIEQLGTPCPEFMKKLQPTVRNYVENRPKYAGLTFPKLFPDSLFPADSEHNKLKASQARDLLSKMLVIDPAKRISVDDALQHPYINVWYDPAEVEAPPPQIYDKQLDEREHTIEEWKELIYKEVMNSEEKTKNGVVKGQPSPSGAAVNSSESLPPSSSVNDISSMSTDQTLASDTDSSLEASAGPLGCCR

[8] = target: Mitogen-activated protein kinase kinase kinase kinase 3 (Homo sapiens) (UniProt Q8IVH8); conditions: Compound concentration 1000.0 nM
Sequence of Mitogen-activated protein kinase kinase kinase kinase 3 (Homo sapiens) (Q8IVH8 whole entry): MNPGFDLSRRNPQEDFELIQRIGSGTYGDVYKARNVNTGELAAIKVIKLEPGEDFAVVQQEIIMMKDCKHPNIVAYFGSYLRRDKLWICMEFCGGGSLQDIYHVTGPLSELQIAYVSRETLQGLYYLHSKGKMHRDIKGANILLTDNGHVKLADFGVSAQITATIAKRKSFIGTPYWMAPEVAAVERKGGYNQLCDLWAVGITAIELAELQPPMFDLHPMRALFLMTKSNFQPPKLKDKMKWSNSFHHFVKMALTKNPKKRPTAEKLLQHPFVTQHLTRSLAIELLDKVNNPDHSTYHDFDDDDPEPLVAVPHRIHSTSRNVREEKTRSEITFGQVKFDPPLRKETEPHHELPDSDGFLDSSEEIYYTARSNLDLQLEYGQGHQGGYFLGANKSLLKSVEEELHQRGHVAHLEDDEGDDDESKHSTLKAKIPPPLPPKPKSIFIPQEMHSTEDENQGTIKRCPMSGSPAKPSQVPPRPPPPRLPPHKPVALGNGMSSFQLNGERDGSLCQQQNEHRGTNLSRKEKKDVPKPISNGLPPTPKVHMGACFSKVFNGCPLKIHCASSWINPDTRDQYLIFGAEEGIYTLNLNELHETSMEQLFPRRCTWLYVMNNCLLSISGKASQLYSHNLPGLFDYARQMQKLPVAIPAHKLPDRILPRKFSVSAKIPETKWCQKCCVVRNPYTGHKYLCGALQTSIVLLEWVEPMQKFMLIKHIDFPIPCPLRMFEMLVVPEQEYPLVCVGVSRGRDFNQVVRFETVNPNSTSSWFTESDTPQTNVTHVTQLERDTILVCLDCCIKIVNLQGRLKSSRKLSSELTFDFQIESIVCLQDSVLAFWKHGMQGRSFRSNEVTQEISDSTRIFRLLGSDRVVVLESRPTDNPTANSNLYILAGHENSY

[9] = test system: Hepatocyte growth factor receptor (Homo sapiens), P08581 [M1250T]; conditions: Compound concentration 1000.0 nM
[10] = target: Serine/threonine-protein kinase 3 (Homo sapiens) (UniProt Q13188); conditions: Compound concentration 1000.0 nM
[11] = target: Mitogen-activated protein kinase kinase kinase 14 (Homo sapiens) (UniProt Q99558); conditions: Compound concentration 1000.0 nM
[12] = target: Phosphatidylinositol 3-kinase C2 domain-containing subunit gamma (Homo sapiens) (UniProt O75747); conditions: Compound concentration 1000.0 nM
Sequence of Phosphatidylinositol 3-kinase C2 domain-containing subunit gamma (Homo sapiens) (O75747 whole entry, the tested form may be a part): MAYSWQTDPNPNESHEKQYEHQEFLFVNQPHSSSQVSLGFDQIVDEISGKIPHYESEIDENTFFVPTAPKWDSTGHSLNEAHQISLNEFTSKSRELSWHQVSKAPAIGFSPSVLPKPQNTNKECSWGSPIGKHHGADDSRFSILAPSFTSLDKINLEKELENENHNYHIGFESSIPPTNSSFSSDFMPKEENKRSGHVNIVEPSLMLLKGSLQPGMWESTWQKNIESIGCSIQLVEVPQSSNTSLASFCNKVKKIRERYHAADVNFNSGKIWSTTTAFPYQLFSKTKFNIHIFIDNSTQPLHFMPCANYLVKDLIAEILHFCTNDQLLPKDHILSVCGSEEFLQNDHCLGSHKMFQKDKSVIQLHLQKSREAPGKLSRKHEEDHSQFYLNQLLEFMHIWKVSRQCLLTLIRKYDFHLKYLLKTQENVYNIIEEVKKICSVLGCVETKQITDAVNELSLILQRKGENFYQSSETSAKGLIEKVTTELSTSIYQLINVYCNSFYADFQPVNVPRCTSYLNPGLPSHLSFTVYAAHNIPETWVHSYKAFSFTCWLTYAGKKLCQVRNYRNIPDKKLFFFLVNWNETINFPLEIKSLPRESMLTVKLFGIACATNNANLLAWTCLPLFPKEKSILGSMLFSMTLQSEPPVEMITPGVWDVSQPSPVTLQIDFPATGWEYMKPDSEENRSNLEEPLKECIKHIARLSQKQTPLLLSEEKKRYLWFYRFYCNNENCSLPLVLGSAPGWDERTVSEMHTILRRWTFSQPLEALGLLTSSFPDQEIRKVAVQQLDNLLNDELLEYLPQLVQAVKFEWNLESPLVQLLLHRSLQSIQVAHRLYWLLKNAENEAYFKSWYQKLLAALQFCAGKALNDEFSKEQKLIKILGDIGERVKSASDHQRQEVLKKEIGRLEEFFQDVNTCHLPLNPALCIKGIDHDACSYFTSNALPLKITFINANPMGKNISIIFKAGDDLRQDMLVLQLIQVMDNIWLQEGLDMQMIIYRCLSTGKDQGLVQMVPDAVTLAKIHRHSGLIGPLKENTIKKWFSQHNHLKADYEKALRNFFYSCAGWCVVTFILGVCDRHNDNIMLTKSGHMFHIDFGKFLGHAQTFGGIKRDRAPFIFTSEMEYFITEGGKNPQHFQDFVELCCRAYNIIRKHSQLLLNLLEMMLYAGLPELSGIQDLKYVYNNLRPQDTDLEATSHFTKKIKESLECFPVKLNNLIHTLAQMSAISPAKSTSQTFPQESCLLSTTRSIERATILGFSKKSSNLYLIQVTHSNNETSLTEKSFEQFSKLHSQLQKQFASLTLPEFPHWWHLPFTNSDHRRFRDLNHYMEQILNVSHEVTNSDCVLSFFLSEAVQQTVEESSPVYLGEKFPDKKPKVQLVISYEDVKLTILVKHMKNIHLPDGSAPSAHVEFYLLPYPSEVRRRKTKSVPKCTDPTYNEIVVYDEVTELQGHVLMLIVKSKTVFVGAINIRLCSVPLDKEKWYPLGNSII

[13] = target: Receptor-interacting serine/threonine-protein kinase 4 (Homo sapiens) (UniProt P57078); conditions: Compound concentration 1000.0 nM
[14] = target: Ribosomal protein S6 kinase alpha-5 (Homo sapiens) (UniProt O75582); conditions: Compound concentration 1000.0 nM
[15] = target: NUAK family SNF1-like kinase 2 (Homo sapiens) (UniProt Q9H093); conditions: Compound concentration 1000.0 nM
Sequence of NUAK family SNF1-like kinase 2 (Homo sapiens) (Q9H093 whole entry): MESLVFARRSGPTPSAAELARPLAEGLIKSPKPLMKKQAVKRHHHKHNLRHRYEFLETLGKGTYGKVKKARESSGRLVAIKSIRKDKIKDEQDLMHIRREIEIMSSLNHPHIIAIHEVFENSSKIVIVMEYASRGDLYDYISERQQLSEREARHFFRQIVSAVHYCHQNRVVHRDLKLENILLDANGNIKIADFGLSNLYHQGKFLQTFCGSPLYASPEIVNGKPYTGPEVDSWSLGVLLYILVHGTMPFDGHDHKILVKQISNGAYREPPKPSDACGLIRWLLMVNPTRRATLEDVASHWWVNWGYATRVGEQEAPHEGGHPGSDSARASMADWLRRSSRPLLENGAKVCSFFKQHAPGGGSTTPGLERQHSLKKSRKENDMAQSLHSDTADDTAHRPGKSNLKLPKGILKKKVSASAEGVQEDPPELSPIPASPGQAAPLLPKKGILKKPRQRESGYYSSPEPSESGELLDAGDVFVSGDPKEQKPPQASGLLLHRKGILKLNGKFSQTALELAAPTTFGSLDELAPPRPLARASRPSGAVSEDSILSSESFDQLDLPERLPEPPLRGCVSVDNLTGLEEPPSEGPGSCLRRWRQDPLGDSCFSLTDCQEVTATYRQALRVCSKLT

[16] = target: Non-receptor tyrosine-protein kinase TNK1 (Homo sapiens) (UniProt Q13470); conditions: Compound concentration 1000.0 nM
[17] = target: Tyrosine-protein kinase receptor TYRO3 (Homo sapiens) (UniProt Q06418); conditions: Compound concentration 1000.0 nM
[18] = target: Alpha-2C adrenergic receptor (Homo sapiens) (UniProt P18825); conditions: Compound concentration 10.0 uM

Sequence of Cyclin-dependent kinase-like 2 (Homo sapiens) (Q92772 whole entry): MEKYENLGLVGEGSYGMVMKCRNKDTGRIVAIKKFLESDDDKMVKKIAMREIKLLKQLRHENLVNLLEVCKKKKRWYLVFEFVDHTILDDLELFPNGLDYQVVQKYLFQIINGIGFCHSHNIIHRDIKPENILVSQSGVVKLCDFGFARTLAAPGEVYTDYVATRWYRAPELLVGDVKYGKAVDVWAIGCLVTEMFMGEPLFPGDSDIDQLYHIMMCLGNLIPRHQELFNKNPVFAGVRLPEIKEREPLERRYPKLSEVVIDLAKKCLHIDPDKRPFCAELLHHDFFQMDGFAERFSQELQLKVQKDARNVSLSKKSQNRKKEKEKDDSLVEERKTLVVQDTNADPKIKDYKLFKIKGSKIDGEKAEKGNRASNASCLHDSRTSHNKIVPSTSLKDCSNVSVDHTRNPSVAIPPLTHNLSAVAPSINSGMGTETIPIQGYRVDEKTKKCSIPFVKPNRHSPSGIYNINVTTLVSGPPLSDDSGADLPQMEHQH
Sequence of Serine/threonine-protein kinase haspin (Homo sapiens) (Q8TF76 whole entry): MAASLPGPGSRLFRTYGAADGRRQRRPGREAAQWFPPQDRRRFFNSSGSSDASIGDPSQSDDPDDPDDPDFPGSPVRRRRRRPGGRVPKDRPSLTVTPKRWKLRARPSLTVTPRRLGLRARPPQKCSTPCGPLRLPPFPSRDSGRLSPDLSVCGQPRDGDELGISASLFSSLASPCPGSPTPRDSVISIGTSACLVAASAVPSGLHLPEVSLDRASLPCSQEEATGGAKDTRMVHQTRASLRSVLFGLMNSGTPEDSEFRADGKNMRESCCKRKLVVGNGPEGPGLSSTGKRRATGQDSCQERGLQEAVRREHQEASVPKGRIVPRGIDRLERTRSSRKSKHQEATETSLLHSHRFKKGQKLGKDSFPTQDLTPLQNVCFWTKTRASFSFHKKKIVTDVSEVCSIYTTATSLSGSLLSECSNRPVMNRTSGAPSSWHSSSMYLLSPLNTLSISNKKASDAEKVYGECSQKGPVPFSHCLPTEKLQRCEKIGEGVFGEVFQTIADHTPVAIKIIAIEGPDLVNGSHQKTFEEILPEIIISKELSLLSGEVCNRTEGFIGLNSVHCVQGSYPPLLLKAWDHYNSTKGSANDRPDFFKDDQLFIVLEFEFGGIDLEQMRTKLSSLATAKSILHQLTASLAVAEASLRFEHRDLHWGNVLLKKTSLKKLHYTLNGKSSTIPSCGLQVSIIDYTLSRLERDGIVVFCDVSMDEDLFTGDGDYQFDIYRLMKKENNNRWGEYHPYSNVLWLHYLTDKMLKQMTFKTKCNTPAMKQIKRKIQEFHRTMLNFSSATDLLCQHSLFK

CC(=O)C1=C(C)N(c2cccc(C(F)(F)F)c2)C(=O)N[C@@H]1c1ccc(C#N)nc1 [BAY-678]
inactive: residual activity [1] 92.4% | residual activity [2] 75.4% | residual activity [3] 100% | residual activity [4] 100% | residual activity [5] 100% | residual activity [6] 100% | residual activity [7] 100% | residual activity [8] 83.5% | residual activity [9] 100% | residual activity [10] 93.1% | residual activity [11] 100% | residual activity [12] 78.2% | residual activity [13] 100% | residual activity [14] 83.4% | residual activity [15] 100% | residual activity [16] 62.1% | residual activity [17] 66.9% | inhibition [18] 20.2%
